Data reported in patent EP0528146A1, “N-phenylthiourea derivatives and pharmaceutical use thereof” (SANDOZ LTD., priority 1991, dated 1993).

Legend:
Details in all cases: in supplemented diet
HDL-cholesterol = assay: Test A: In vivo HDL-cholesterol test; design: species or system Male Sprague-Dawley rats
Protocol: a) Test A: In vivo HDL-cholesterol test: Male Sprague-Dawley rats weighing 200-225 g are housed two per cage and fed Purina Rodent Chow Special Mix 5001-S supplemented with 0.25 % cholic acid and 0.75 % cholesterol by Purina and water ad libitum for seven or eight days. Each test substance is then administered to a group of six rats in the supplemented diet for eight or twenty-one days, the test substance constituing 0.005-0.20 % of the diet. Body weight and food consumption data are recorded prior to diet administration, prior to test substance administration and at termination. Typical doses of the test substance are 4-200 mg/kg/day. At termination, the rats are anesthetized, sacrificed by exsanguination, the blood is collected, kept on ice while clotting, centrifuged, and the serum is separated. […] Remaining sera aliquots are refrigerated and frozen for storage. HDL is isolated by micro-ultracentrifugation (mUC) or fast protein liquid chromatography (FPLC) techniques. The mUC method is as follows: 175 µl of the 1.06 g/ml density-adjusted blood serum is centrifuged at 42000 rpm in a Beckmann 42.2 Ti rotor at 20°C for 2.5 hours. 95 µl is fractionated from the top, leaving 80 µl in the bottom. FPLC fractionation is performed by Superose^R 6 (highly cross-linked beaded agarose having a dry bead diameter of 20-40 µm) gel permeation chromatography using the method of Kieft et al., J.Lipid Res. 32 (1991) 859-866 modified by the technique described in France et al., Laboratory Robotics and Automation 2 (1990) 155-173. The column buffer is Tris buffered saline solution [i.e. 0.05 M Tris (2-amino-2-hydroxymethyl-1,3-propanediol) and 0.15 M sodium chloride in distilled deionized water (ddH₂O)] containing 0.01 % sodium azide. 200 µl of serum is injected and forty 0.5 ml fractions are collected. Cholesterol is assayed on total, 42.2 Ti rotor bottoms and FPLC fractions using the Sigma Diagnostics kit for the enzymatic determination of cholesterol, Procedure No. 352, modified for use with ninety-six well microtiter plates. The reconstituted reagent (after addition of water) contains 300 U/l cholesterol oxidase, 100 U/l cholesterol esterase, 1000 U/l peroxidase (horseradish), 0.3 mmoles/l 4-aminoantipyrine and 30.0 mmoles/l p-hydroxybenzenesulfonate in a pH 6.5 buffer. This method uses cholesterol esterase to hydrolyze cholesterol esters to free cholesterol. Free cholesterol is oxidized to produce hydrogen peroxide that is used to form a quinoneimine dye. Since the reaction takes place quantitatively, the concentration of the dye, measured colorimetrically, is directly proportional to the cholesterol content of the sample. Calibrator, standard and sample may be diluted with saline if cholesterol concentrations cause readings outside the linear range. 20 µl of calibrator, standard or test sample is mixed with a 200 µl aliquot of reagent in a ninety-six well microtiter plate. Each mixture is incubated at 20°-25° for 25 minutes, and absorbance is determined by a colorimetric microtiter plate reader at 490, 492 or 500 nm. Top cholesterol (i.e. LDL-cholesterol) is determined by subtraction. Quality of micro-ultracentrifugation separation is determined by Corning universal agarose gel electrophoresis with Fat Red 7B stain. FPLC fraction Apo A-I content is assessed by the non-reducing SDS-PAGE method of France et al., J. Lipid Res. 30 (1989) 1997-2004. HDL-cholesterol is quantitated by assessing the cholesterol content of fractions containing Apo A-I and lacking immunoreactive Apo B protein. Other conventional methods may be used to assay the blood serum samples for HDL-cholesterol and total triglyceride content.

Apo A-I = assay: Test B: Apo A-I test (rat Apo A-I ELISA on blood serum of the test animals of Test A); format: in vivo
Protocol: The Apo A-I blood serum level of the test animals of Test A is determined by rat Apo A-I Enzyme-Linked Immunosorbent Assay (ELISA) as follows:
1. Production and purification of rabbit anti-rat Apo A-I antibody:
Rat Apo A-I is purified from pooled rat blood serum by sequential ultracentrifugation and isolation of rat high-density lipoproteins (HDL). Following delipidation, Apo A-I is resolved from other HDL proteins by gel filtration chromatography. Antisera are raised in three rabbits (Pocono Rabbit Farms, Candensis, PA) by serial subcutaneous injections of purified rat Apo A-I by conventional immunization protocols. After one year of repeated bleedings, antisera are pooled, aliquoted and frozen at -20°. The crude antisera are defrosted, applied to a cyanogen bromide-activated Sepharose^R Cl-4B (beaded agarose having a 60-140 µm dry bead diameter) column to which purified human HDL had been covalently linked, the column is washed with saline, and the purified antibody is eluted with 1 M pH 3 glycine solution. The glycine is removed by dialysis utilizing Tris Buffered Saline Solution to obtain a concentrated solution of purified rabbit anti-rat Apo A-I antibody.
2. Buffers, reagents and standards:
• Sodium carbonate adsorption buffer: 2.25 g of sodium carbonate, 4.40 g of sodium bicarbonate and 0.15 g of sodium azide are dissolved in 1.4 l of ddH₂O, the pH is adjusted to 9.6 with sodium hydroxide, and the buffer is diluted with ddH₂O to a total volume of 1.5 l; • pH 8 0.5 M Tris: a solution of 60.55 g of Tris·HCl (2-amino-2-hydroxymethyl-1,3-propanediol·hydrochloride) in 1.0 l of ddH₂O is adjusted to pH 8.0 with 10 N sodium hydroxide solution; • secondary antibody buffer: 200 ml of pH 8 0.5 M Tris is added to a solution of 40 g of bovine serum albumin (BSA) Cohn Fraction V in 1.8 l of ddH₂O, 0.2 g of sodium azide is added, and 18.0 g of sodium chloride is added; • substrate buffer: 0.1 g of sodium azide is added with stirring to 105.1 g of diethanolamine and 500 ml of ddH₂O, 10 ml of 0.5 M magnesium chloride·hexahydrate solution is added, the pH is adjusted to 9.8 with 12 N hydrochloric acid, and the solution is diluted to a total volume of 1 l with ddH₂O; • 30 x ELISA wash buffer: 525.96 g of sodium chloride, 76.68 g of Tris, 6 g of sodium azide and 30 ml of Tween^R20 [polyoxyethylene (20) sorbitan monolaurate] are combined, the pH is adjusted to 7.3 with 12 N hydrochloric acid, and the solution is diluted to a total volume of 2 l with ddH₂O; • 1 x ELISA wash buffer: 1 volume of 30 x ELISA wash buffer is diluted with 29 volumes of ddH₂O; • sample diluent buffer: 886.34 ml of secondary antibody buffer and 113.66 ml of Tween^R20 are mixed well to obtain an 11.366 % v/v Tween^R20 solution; • standard diluent buffers: (A) 780 mi of secondary antibody buffer and 220 ml of Tween^R20 are mixed well to obtain a 22 % v/v Tween^R20 solution. (B) 890 ml of secondary antibody buffer and 110 ml of Tween^R20 are mixed well to obtain an 11 % v/v Tween^R20 solution; • rat serum pool A: this source of rat blood serum is used to construct the standard curve for each assay. It is calibrated against purified Apo A-I and contains 45 ± 2.7 mg Apo A-I/dl blood serum; • rat serum pool B: this is used as a low internal standard in each assay for monitoring assay drift and contains 40 mg Apo A-I/dl blood serum; • rat serum pool C: this is derived from rats treated with reference compound (gemfibrozil), is used as a high internal standard for monitoring assay drift and contains 70 mg Apo A-I/dl blood serum.
Purified rat Apo A-I from a frozen stock containing 942 µg/ml is diluted in sodium carbonate adsorption buffer to a final concentration of 3.7 µg/ml. Into each well of several Nunc polystyrene ninety-six well microtiter plates is added 100 µl of this solution. Apo A-I is allowed to adsorb onto the plates for 48 hours at 4°. […]

Total triglycerides = Total triglycerides in blood serum of the rats of Test A; format: in vivo, Male Sprague-Dawley rats
Protocol: Male Sprague-Dawley rats weighing 200-225 g are housed two per cage and fed Purina Rodent Chow Special Mix 5001-S supplemented with 0.25 % cholic acid and 0.75 % cholesterol by Purina and water ad libitum for seven or eight days. Each test substance is then administered to a group of six rats in the supplemented diet for eight or twenty-one days, the test substance constituing 0.005-0.20 % of the diet. Body weight and food consumption data are recorded prior to diet administration, prior to test substance administration and at termination. Typical doses of the test substance are 4-200 mg/kg/day.
At termination, the rats are anesthetized, sacrificed by exsanguination, the blood is collected, kept on ice while clotting, centrifuged, and the serum is separated. […] Remaining sera aliquots are refrigerated and frozen for storage.
Total triglycerides are assayed on blood serum using the Boehringer Mannheim Diagnostics Reagentset^R Triglycerides-GB kit (Cat. No. 877557) modified for microtiter plate assays as follows: The reagents are prepared according to the described method. 100 µl of Working Solution 1 and 20 µl of dilute blood serum [1:1 blood serum:saline (saline is 0.15 M sodium chloride in ddH₂O)] are added to each well of a ninety-six well microtiter plate, mixed and incubated at 20°-25° for at least 5 minutes. 100 µl of working solution 2 is added to each well, and the contents are mixed and incubated at 20°-25° for at least 5 minutes and read at 490, 492 or 500 nm. The total triglyceride content in mg/dl of blood serum is calculated by comparing the absorbance with the absorbance of known samples.
Other conventional methods may be used to assay the blood serum samples for HDL-cholesterol and total triglyceride content.

[1] = duration of treatment 8 days, dose mg/kg/day: Example 1 60, Example 2 79, Gemfibrozil 50
[2] = duration of treatment 21 days, dose mg/kg/day: Example 1 65, Example 2 73, Gemfibrozil 44

Row | Compound | HDL-cholesterol level increase (%) (HDL-cholesterol; [1]) | HDL-cholesterol level increase (%) (HDL-cholesterol; [2]) | Apo-I level increase (%) (Apo A-I; [1]) | Apo-I level increase (%) (Apo A-I; [2]) | Total triglycerides level decrease (%) (Total triglycerides; [1]) | Total triglycerides level decrease (%) (Total triglycerides; [2])
1 | CCCNC(=S)Nc1cc(Cl)ccc1C [Example 1, N-(5-Chloro-2-methylphenyl)-N'-propylthiourea] | 225% | 256% | 65% | 47% | 45% | 70%
2 | Cc1ccc(Cl)cc1NC(=S)NCC(C)C [Example 2, N-(5-Chloro-2-methylphenyl)-N'-2-methylpropylthiourea] | 267% | 323% | 69% | 102% | 49% | 44%
3 | Cc1ccc(C)c(OCCCC(C)(C)C(=O)O)c1 [Gemfibrozil, reference compound] | 100% | 106% | 50% | 44% | 35% | 43%
